Data set [1] has as its system SCID mice reconstituted with CD4^+CD45RB^HI T cells. Briefly: SCID-IBD mouse model, treatment from day 1 for 4 weeks. To be noted: 3 and 10 mg/kg/day p.o., steroid-related. It is filed as in vivo. An excerpt: A well-established animal model for IBD exists (see Leach et al., Am. J. Pathol., Vol. 148, No. 5, pp. 1503-1515 (1996), and Powrie et al., Int. Immunol., Vol. 5, No. 11, pp. 1461-1471 (1993)). It is known that the transfer of syngeneic, naive T lymphocytes (CD4^+CD45RB^HI) into SCID mice results in a severe colitis and wasting disease, SCID-IBD. Histopathologically, features of both CD and UC are represented in this model which has been used throughout the 1990s to bring the understanding of the pathoetiology of this disease of immune dysregulation in man to its present status. There is no other animal model of IBD which is considered relevant for the human disease, both in mechanism and in validity of clinical treatment.
In this study, SCID mice reconstituted with CD4^+CD45RB^HI T lymphocytes were used. These mice are known to develop chronic colitis with characteristics similar to human IBD, as described above.
In this study, SCID mice were reconstituted with 2 x 10^5 CD4^+CD45RB^HI T cells and then treated with pimecrolimus (30, 60 and 100 mg/kg/day) or vehicle daily p.o. for 4 weeks. […] BW was monitored throughout. On termination, blood was withdrawn, spleen, mesenteric lymph nodes (MLN) and colon were removed. Serum haptoglobin levels were measured (ELISA), colitis was assessed histologically and lymphocyte and neutrophil numbers were calculated from FACS analysis of blood, spleen and MLN cell suspensions.
In order to determine the efficacy of ASM981 treatment in preventing intestinal mucosal damage in SCID-IBD mice, a histological examination of the colon sections was performed according to defined morphological parameters. All colon sections were assessed according to a scheme awarding degrees of severity governed by the extent of cell infiltration and inflammation with a score of 8 being the maximum.

Another data set can be described thus: in vivo. On the set-up: species or system rats. To be noted: rat, skin; 2 oral doses of 25 mg/kg in an interval of 2 hours; 6 hours after the last dosing; read-out: skinlblood concentration ratio. The method, then: In another study designed to explore the differences between pimecrolimus and FK506 and to determine whether these differences might be associated with a different tissue distribution, the exposure to pimecrolimus and FK506 in various organs after oral administration were measured. Animals received 2 oral doses of 25 mg/kg in an interval of 2 hours. […] Pimecrolimus was found consistently to have a higher skinlblood concentration ratio than FK506 (2 hours: 7.3 vs. 2.8; 6 hours: 13 vs. 1.6; 24 hours: 36 vs. 6.0). The AUC0-24h in skin calculated for pimecrolimus was twice as high as with FK506.
These distribution characteristics are relevant not only for oral, but also for topical application, as the compound enters systemic circulation after permeation through the skin.

Turning to `C[C@@H]1C[C@H]2[C@@H]3CCC4=CC(=O)C=C[C@]4(C)[C@@]3(F)[C@@H](O)C[C@]2(C)[C@@]1(O)C(=O)CO` [Dexamethasone, reference compound], the “effect on BW” value in data set [1] is recorded as “accelerated loss in BW”.

Consider `C=CC[C@@H]1/C=C(\C)C[C@H](C)C[C@H](OC)[C@H]2O[C@@](O)(C(=O)C(=O)N3CCCC[C@H]3C(=O)O[C@H](/C(C)=C/[C@@H]3CC[C@@H](O)[C@H](OC)C3)[C@H](C)[C@@H](O)CC1=O)[C@H](C)C[C@@H]2OC` [FK506, tacrolimus, reference compound], for which the Kp at 6 h in “in vivo” was 1.6.

The values above are taken from patent publication EP1649856A2, “Use of pimecrolimus for selective immunomodulation” (Novartis AG, priority 2001, dated 2002).
